Twelve compounds from patent US9695200B2, “Heterocyclic ITK inhibitors for treating inflammation and cancer” (Confluence Life Sciences, Inc., priority 2015, dated 2017) can be followed below.

pIC50: −log10 of the molar value.

In one test the target is ITK (Homo sapiens (Human), UniProt Q08881). As to the kind of experiment: ITK inhibitor binding potency (LanthaScreen competitive binding assay). As to conditions: TR-FRET tracer-236 displacement, 10 nM ITK; pre-incubation condition not given; read-out: ITK Inhibition IC50. From the text: The ability of candidate compounds to interact with ITK is quantitated by a competitive binding assay using the LanthaScreen technology developed by Life Technologies. This assay is based on the binding of a proprietary, Alexa Fluor® 647-labeled, ATP-competitive kinase inhibitor (kinase tracer-236) to the ITK expression construct in the presence of a Europium-conjugated antibody, resulting in a FRET (fluorescence resonance energy transfer) signal. Displacement of the kinase tracer by compound results in a lower emission ratio upon excitation of the Europium chelate. Candidate compounds are designed as potential irreversible inhibitors of ITK, capable of ligating to an active site cysteine residue resulting in time dependent covalent binding. The time dependent nature of irreversible inhibition is investigated by performing the binding assay with and without a pre-incubation of compound and ITK. […] The inhibitory potency of candidate compounds is measured in 20 mM HEPES pH 7.5, 10 mM MgCl2, 0.01% BSA, 0.0005% Tween-20, and 2% DMSO in the presence of 10 nM ITK, 2 nM Eu-anti-GST antibody, and 50 nM kinase tracer-236 using a 384-well plate format. Background signal is defined in the absence of ITK and uninhibited signal is defined in the presence of vehicle (2% DMSO) alone. Compounds were evaluated in an 11 point dose-response ranging from 20 uM to 0.34 nM. The binding assays are performed under two preincubation conditions to evaluate time dependence of inhibition. For the pre-incubation assay, ITK and Eu-anti-GST antibody are pre-incubated with compound or vehicle for two hours prior to the addition of kinase tracer. The non-preincubated assay is run under conditions where ITK and Eu-anti-GST antibody are added to a mixture of compound and kinase tracer. IC50 values of compounds are determined using a 4 parameter logistical fit of emission ratio as a function of the concentration of compound.
ITK, sequence (Q08881 whole entry): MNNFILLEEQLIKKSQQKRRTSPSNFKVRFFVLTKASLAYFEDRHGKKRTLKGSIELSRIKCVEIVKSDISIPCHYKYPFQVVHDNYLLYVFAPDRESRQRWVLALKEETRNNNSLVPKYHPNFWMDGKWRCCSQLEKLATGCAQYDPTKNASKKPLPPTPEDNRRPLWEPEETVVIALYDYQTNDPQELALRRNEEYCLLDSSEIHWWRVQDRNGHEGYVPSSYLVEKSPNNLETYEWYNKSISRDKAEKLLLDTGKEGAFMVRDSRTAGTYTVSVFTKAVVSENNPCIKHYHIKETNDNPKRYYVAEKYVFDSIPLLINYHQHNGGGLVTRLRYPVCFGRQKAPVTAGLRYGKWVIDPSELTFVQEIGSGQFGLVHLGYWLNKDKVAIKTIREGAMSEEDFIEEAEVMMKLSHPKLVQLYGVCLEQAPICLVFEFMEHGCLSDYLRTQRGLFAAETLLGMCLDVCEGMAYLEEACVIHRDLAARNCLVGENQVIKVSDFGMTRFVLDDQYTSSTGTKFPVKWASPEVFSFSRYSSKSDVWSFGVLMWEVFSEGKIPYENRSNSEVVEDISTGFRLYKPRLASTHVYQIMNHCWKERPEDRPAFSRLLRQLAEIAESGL

The test system of test [1] is phospho-PLCγ1 in Jurkat cells. As to the kind of experiment: ITK target modulation PLC-γ assay (phospho-PLCγ1, αCD3-stimulated Jurkat cells). The format is cell-based, human. The conditions noted are these: Homo sapiens, 1 hour compound incubation, αCD3 Dynabeads stimulation 8 minutes, MSD phospho-PLCγ1, read-out: PLC-γ Inhibition IC50. The method, then: Jurkat cells, an immortalized human T-lymphocyte cell line, were maintained in RPMI media, 10% FBS, 1% pen/strep/glutamine (growth media). Cells were plated in growth media plus 50 μM β-mercaptoethanol at 400,000 cells per well of a 96 well plate.
Compounds were serially diluted into DMSO, and then into media to concentrations 10× that of the final assay concentration. Compounds were then added to the cells with the final assay DMSO concentration being 0.1%. Cells were incubated for 1 hour at 37° C.
Following compound incubation, αCD3 Dynabeads were added at 1 bead/cell to each assay well and incubated at 37° C. for 7 minutes. Unstimulated control wells received media only. The plate was then placed on a 96-well magnetic plate for an additional 60 seconds (total assay stimulation time equals 8 minutes). The plate was then dumped and gently patted dry on a paper towel. 50 μl of complete Meso Scale Discovery (MSD) Lysis buffer was then added to each well. Samples were assayed for phospho-PLCγ1 using Meso Scale Discovery technology.
The assay stimulation time has been optimized for detection of Itk kinase-mediated phosphorylation of PLCγ1. The timing and detection reagents for this assay could be adjusted to capture phosphorylation events upstream (e.g., phospho-ZAP70) or downstream of the Itk/PLCγ1 node, provided the appropriate phospho-specific antibodies are available for building of an MSD assay.

As for `C=CC(=O)NC1CN(c2cnc3[nH]cc(-c4ccncc4)c3c2)C1` [Example 10, N-(1-(3-(Pyridin-4-yl)-1H-pyrrolo[2,3-b]pyridin-5-yl)azetidin-3-yl)acrylamide], the negative logarithm of the IC50 (pIC50) (commonly the negative decadic logarithm of the IC50, by convention in mol/L) is ≥ 6.00 on ITK and < 5.30 in test [1].
On the same counts, the results for `N#C/C(=C\c1cccc(-c2cnc3[nH]cc(-c4ccncc4)c3c2)c1)C(N)=O` [Example 8, (E)-2-Cyano-3-(3-(3-(pyridin-4-yl)-1H-pyrrolo[2,3-b]pyridin-5-yl)phenyl)acrylamide] are ≥ 6.00 and 5.30 to 6.00.
On the same counts, the results for `C=CC(=O)Nc1cccc(-c2cnc3[nH]cc(-c4ccc(C(=O)Nc5ccc(C(C)C)cc5)cc4)c3c2)c1` [Example 74, 4-(5-(3-acrylamidophen-yl)-1H-pyrrolo[2,3-b]pyridin-3-yl)-N-(4-isopropylphenyl) benzamide] are ≥ 6.00 and > 6.00.
The like results for `COc1cc(NC(=O)/C=C/CN(C)C)cc(-c2cnc3[nH]cc(-c4ccnc(OC)c4)c3c2)c1` [Example 76, (E)-4-(dimethylamino)-N-(3-methoxy-5-(3-(2-methoxypyridin-4-yl)-1H-pyrrolo[2,3-b]pyridin-5-yl)phenyl)but-2-enamide] were, in that order, ≥ 6.00 and > 6.00.
On to `COc1cc(-c2c[nH]c3ncc(-c4cccc(/C=C(\C#N)C(N)=O)c4)cc23)ccn1` [Example 9, (E)-2-Cyano-3-(3-(3-(2-methoxypyridin-4-yl)-1H-pyrrolo[2,3-b]pyridin-5-yl)phenyl)acrylamide], for which the pIC50 on ITK was ≥ 6.00; in test [1], < 5.30.
With `C=CC(=O)Nc1cccc(-c2cnc3[nH]cc(-c4ccc(C(=O)Nc5ccc(C)cc5C)cc4)c3c2)c1` [Example 67, 4-(5-(3-acrylamidophen-yl)-1H-pyrrolo[2,3-b]pyridin-3-yl)-N-(2,4-dimethylphenyl) benzamide], the pIC50 at ITK is < 6.00; in test [1] it was > 6.00.
The like results for `CN(C)C/C=C/C(=O)Nc1cccc(-c2cnc3[nH]cc(-c4ccnc5[nH]ccc45)c3c2)c1` [Example 89, (E)-N-(3-(1H,1′H-[3,4′-bipyrrolo[2,3-b]pyridin]-5-yl)phenyl)-4-(dimethylamino) but-2-enamide] were, in that order, ≥ 6.00 and > 6.00.
The like results for `O=C(/C=C/CN1CCOCC1)Nc1cccc(-c2cnc3[nH]cc(-c4ccncc4)c3c2)c1` [Example 23, (E)-4-morpholino-N-(3-(3-(pyridin-4-yl)-1H-pyrrolo[2,3-b]pyridin-5-yl)phenyl)but-2-enamide] were, in that order, ≥ 6.00 and 5.30 to 6.00.
For `C=CC(=O)Nc1cccc(-c2cnc3[nH]cc(-c4cn(C)c(=O)c5ccccc45)c3c2)c1` [Example 72, N-(3-(3-(2-methyl-1-oxo-1,2-dihydroisoquino-lin-4-yl)-1H-pyrrolo[2,3-b]pyridin-5-yl)phenyl)acryl-amide], the pIC50 at ITK was ≥ 6.00; in test [1], > 6.00.
On the same counts, the results for `C=CC(=O)Nc1cncc(-c2cnc3[nH]cc(-c4ccc(=O)n(C)c4)c3c2)c1` [Example 17, N-(5-(3-(1-methyl-6-oxo-1,6-dihydropyridin-3-yl)-1H-pyrrolo[2,3-b]pyridin-5-yl)pyridin-3-yl)acrylamide] are ≥ 6.00 and < 5.30.
On the same counts, the results for `COc1cc(-c2c[nH]c3ncc(-c4cccc(NC(=O)/C=C/CN(C)C)c4)cc23)ccn1` [Example 37, (E)-4-(dimethylamino)-N-(3-(3-(2-methoxypyridin-4-yl)-1H-pyrrolo[2,3-b]pyridin-5-yl)phenyl)but-2-enamide] are ≥ 6.00 and 5.30 to 6.00.
The like results for `CN(C)C/C=C/C(=O)Nc1cccc(-c2cnc3[nH]cc(-c4cccc(C#N)c4)c3c2)c1` [Example 78, (E)-N-(3-(3-(3-cyanophenyl)-1H-pyrrolo[2,3-b]pyridin-5-yl)phenyl)-4-(dimethylamino) but-2-enamide] were, in that order, ≥ 6.00 and < 5.30.
